From patent publication US20240158446A1, “CYCLIC COMPOUND HAVING SELECTIVE INHIBITORY ACTION ON KRAS OVER HRAS AND NRAS” (CHUGAI SEIYAKU KABUSHIKI KAISHA, priority 2021, published 2024) come the findings set out here.

Read-outs that look alike come from different tables or passages of the source.

A word on the Kd: it is the free concentration of one partner at which half of the binding sites on the other are occupied at equilibrium, for simple one-to-one binding. Usually IC50 stands for the point on the concentration scale where inhibition reaches its midpoint.

Test [1] addresses GDP-bound KRAS wild-type protein (Homo sapiens, UniProt P01116). The test is described as follows: Binding to KRAS by surface plasmon resonance (SPR), Single Cycle Kinetics. As to conditions: GDP-bound KRAS wild-type protein, read-out: KRAS KD. In general terms: In SPR one partner is held on a chip, and binding of the other changes the refractive index at the surface.
Test [2] deals with GDP-bound NRAS wild-type protein (Homo sapiens, UniProt P01111). The test is described as follows: Binding to NRAS by surface plasmon resonance (SPR), Single Cycle Kinetics. As to conditions: for NRAS/KRAS (ratio of KD value for NRAS to KD value for KRAS): SPR, GDP-bound NRAS wild-type protein vs GDP-bound KRAS wild-type protein; for NRAS/KRAS (ratio of KD value with respect to GDP-bound NRAS wild-type protein to KD value with respect to KRAS): SPR KD ratio NRAS/KRAS, class symbols.
Sequence of GDP-bound NRAS wild-type protein (P01111 whole entry): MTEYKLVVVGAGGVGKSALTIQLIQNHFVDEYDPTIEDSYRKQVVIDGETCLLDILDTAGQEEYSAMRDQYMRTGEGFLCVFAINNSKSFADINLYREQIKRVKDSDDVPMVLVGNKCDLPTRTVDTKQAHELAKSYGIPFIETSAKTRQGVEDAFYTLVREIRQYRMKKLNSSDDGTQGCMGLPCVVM

Test [3] has as its target GDP-bound HRAS wild-type protein (Homo sapiens, UniProt P01112). The test is described as follows: Binding to HRAS by surface plasmon resonance (SPR), Single Cycle Kinetics. As to conditions: for HRAS/KRAS (ratio of KD value for HRAS to KD value for KRAS): SPR, GDP-bound HRAS wild-type protein vs GDP-bound KRAS wild-type protein; for HRAS/KRAS (ratio of KD value with respect to GDP-bound HRAS wild-type protein to KD value with respect to KRAS): SPR KD ratio HRAS/KRAS, class symbols.

The subject of test [4] is human lung cancer strain NCI-H441.
[5] abbreviates: SPR Single Cycle Kinetics, 1:1 binding model.
Where [6] appears, read: SPR, Single Cycle Kinetics, 1:1 binding model.
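For IC50 in this document: cell proliferation inhibition after four days measured by CellTiter-Glo.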

Sequence of GDP-bound KRAS wild-type protein (P01116 whole entry): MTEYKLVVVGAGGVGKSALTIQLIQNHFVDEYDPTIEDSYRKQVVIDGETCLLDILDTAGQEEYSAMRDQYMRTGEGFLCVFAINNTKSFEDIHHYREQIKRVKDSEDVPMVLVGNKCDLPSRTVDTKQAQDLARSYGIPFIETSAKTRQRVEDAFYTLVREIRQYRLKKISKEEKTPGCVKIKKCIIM
Sequence of GDP-bound HRAS wild-type protein (P01112 whole entry): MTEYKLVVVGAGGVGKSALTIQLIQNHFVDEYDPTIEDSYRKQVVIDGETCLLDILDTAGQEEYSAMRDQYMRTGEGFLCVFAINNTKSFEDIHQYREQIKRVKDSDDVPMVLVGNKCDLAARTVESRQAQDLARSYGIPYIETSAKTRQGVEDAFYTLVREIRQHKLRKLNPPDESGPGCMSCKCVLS

For `CC[C@H](C)[C@@H]1NC(=O)[C@H](CC)N(C)C(=O)C[C@@H](C(=O)N(C)C)N(C)C(=O)[C@H](C2CCCC2)N(C)C(=O)C2(CCC2)NC(=O)[C@H](C)N(C)C(=O)[C@H](CCc2cc(F)c(C(F)(F)F)c(F)c2)NC(=O)CN(C)C(=O)[C@H](Cc2ccc(C(F)(F)F)cc2)N2CC/C=C\C[C@@H](C2=O)N(C)C(=O)CN(C)C1=O` [PP1146], the Kd in test [1] (SPR, Single Cycle Kinetics) amounted to 0.32 nM. Moreover, the “NRAS/KRAS (ratio of KD value for NRAS to KD value for KRAS)” value in test [2] was “A (a compound having 10 or more and less than 20 is denoted as A)”. Also, the “HRAS/KRAS (ratio of KD value for HRAS to KD value for KRAS)” value in test [3] is “B (a compound having 3 or more and less than 10 is denoted as B)”. Also, in test [4], the IC50 came to 202 nM.
Consider `CCC[C@H]1C(=O)N[C@@H]([C@@H](C)CC)C(=O)N2CCC[C@H]2C(=O)N(C)[C@H]2C/C=C\CCN(C2=O)[C@@H](Cc2ccc(C)cc2)C(=O)N(C)CC(=O)N[C@@H](CCc2ccc(Cl)c(Cl)c2)C(=O)N2C[C@H](OCC)C[C@H]2C(=O)NC2(CC(C)(C)C2)C(=O)N(C)[C@@H](C(CC)CC)C(=O)N(C)[C@H](C(=O)N(C)C)CC(=O)N1C` [PP2638], for which the dissociation constant (Kd) in test [1] (setting [5]) stood at 2.5 nM. The “NRAS/KRAS (ratio of KD value with respect to GDP-bound NRAS wild-type protein to KD value with respect to KRAS)” value in test [2] is given as “AA (a compound having 20 or more is denoted as AA)”. Also, the “HRAS/KRAS (ratio of KD value with respect to GDP-bound HRAS wild-type protein to KD value with respect to KRAS)” value in test [3] is “A (a compound having 10 or more and less than 20 is denoted as A)”. Moreover, half-maximal inhibition in test [4] (IC50) was put at 97 nM.
For the compound `CCO[C@@H]1C[C@H]2C(=O)NC3(CCC3)C(=O)N(C)[C@@H](C3CCCC3)C(=O)N(C)[C@H](C(=O)N(C)C)CC(=O)N(C)[C@@H](CC(F)F)C(=O)N[C@@H]([C@@H](C)CC)C(=O)N(C)CC(=O)N(C)[C@H]3CCCCCN(C3=O)[C@@H](Cc3ccc(F)cc3)C(=O)N(C)CC(=O)N[C@@H](CCc3cc(F)c(C(F)(F)F)c(F)c3)C(=O)N2C1` [PP1191], the Kd in test [1] (SPR, Single Cycle Kinetics) was found to be 0.056 nM. Moreover, the “NRAS/KRAS (ratio of KD value for NRAS to KD value for KRAS)” value in test [2] is “A (a compound having 10 or more and less than 20 is denoted as A)”. The “HRAS/KRAS (ratio of KD value for HRAS to KD value for KRAS)” value in test [3] was “B (a compound having 3 or more and less than 10 is denoted as B)”. This compound registered an IC50 in test [4] of 13 nM.
With `CC[C@H](C)[C@@H]1NC(=O)[C@H](CC(C)C)N(C)C(=O)C[C@@H](C(=O)N(C)C)N(C)C(=O)[C@H](C2CCCC2)N(C)C(=O)C2(CC(C)(C)C2)NC(=O)[C@@H]2C[C@@H](F)CN2C(=O)[C@H](CCc2cc(F)c(C(F)(F)F)c(F)c2)NC(=O)CN(C)C(=O)[C@H](Cc2ccc(C(F)(F)F)cc2)N2CC/C=C\C[C@@H](C2=O)N(C)C(=O)CN(C)C1=O` [PP1566], the Kd in test [1] (setting [6]) was determined as 0.026 nM. The “NRAS/KRAS (ratio of KD value for NRAS to KD value for KRAS)” value in test [2] (KD ratio class) is “A (a compound having 10 or more and less than 20 is denoted as A)”. In addition, the “HRAS/KRAS (ratio of KD value for HRAS to KD value for KRAS)” value in test [3] (KD ratio class) is “A (a compound having 10 or more and less than 20 is denoted as A)”. In test [4], half-maximal inhibition (IC50) was put at 2.3 nM.
`CCC[C@H]1C(=O)N[C@@H]([C@@H](C)CC)C(=O)N(C)CC(=O)N(C)[C@H]2C/C=C\CCN(C2=O)[C@@H](CC2CCC(F)(F)CC2)C(=O)N(C)CC(=O)N[C@@H](CCc2cc(F)c(C(F)(F)F)c(F)c2)C(=O)N2C[C@H](OCC)C[C@H]2C(=O)NC2(CCC2)C(=O)N(C)[C@@H](C2CCCC2)C(=O)N(C)[C@H](C(=O)N(C)C)CC(=O)N1C` [PP1450, (2S,8S,12R,14S,20S,23S,27S,30S,36S,38Z)-20-cyclopentyl-2-[(4,4-difluorocyclohexyl)methyl]-8-[2-[3,5-difluoro-4-(trifluoromethyl)phenyl]ethyl]-12-ethoxy-N,N,4,19,22,26,32,35-octamethyl-30-[(1S)-1-methylpropyl]-3,6,9,15,18,21,25,28,31,34,42-undecaoxo-27-propyl-spiro[1,4,7,10,16,19,22,26,29,32,35-undecazatricyclo[34.5.1.0^10,14]dotetracont-38-ene-17,1′-cyclobutane]-23-carboxamide]: the Kd in test [1] (setting [6]) is 0.14 nM. For the same compound, in test [2] (KD ratio class), the “NRAS/KRAS (ratio of KD value for NRAS to KD value for KRAS)” value was “A (a compound having 10 or more and less than 20 is denoted as A)”. Besides, the “HRAS/KRAS (ratio of KD value for HRAS to KD value for KRAS)” value in test [3] (KD ratio class) was “A (a compound having 10 or more and less than 20 is denoted as A)”. In test [4], the IC50 was 50.1 nM.
Take `CCC[C@H]1C(=O)N[C@@H]([C@@H](C)CC)C(=O)N(C)CC(=O)N(C)[C@H]2C/C=C\CCN(C2=O)[C@@H](Cc2ccc(C)cc2)C(=O)N(C)CC(=O)N[C@@H](CCc2cc(F)c(C(F)(F)F)c(F)c2)C(=O)N2C[C@H](OCC)C[C@H]2C(=O)NC2(CC(C)(C)C2)C(=O)N(C)[C@@H](CC2CCC2)C(=O)N(C)[C@H](C(=O)N(C)C)CC(=O)N1C` [PP2751]: the dissociation constant Kd in test [1] (setting [5]) came out at 0.85 nM. Further, the “NRAS/KRAS (ratio of KD value with respect to GDP-bound NRAS wild-type protein to KD value with respect to KRAS)” value in test [2] is “A (a compound having 10 or more and less than 20 is denoted as A)”. In test [3], the “HRAS/KRAS (ratio of KD value with respect to GDP-bound HRAS wild-type protein to KD value with respect to KRAS)” value is “A (a compound having 10 or more and less than 20 is denoted as A)”. Also, inhibition in test [4] was half-maximal at 39.3 nM (IC50).
Take `CC[C@H](C)[C@@H]1NC(=O)[C@H](C)N(C)C(=O)C[C@@H](C(=O)N(C)C)N(C)C(=O)[C@H](C2CCCC2)N(C)C(=O)C2(CCC2)NC(=O)[C@@H]2CCCN2C(=O)[C@H](CCc2cc(F)c(C(F)(F)F)c(F)c2)NC(=O)CN(C)C(=O)[C@H](Cc2ccc(C(F)(F)F)cc2)N2CC/C=C\C[C@@H](C2=O)N(C)C(=O)CN(C)C1=O` [PP1271, (2S,8S,14S,20S,23S,27S,30S,36S,38Z)-20-cyclopentyl-8-[2-[3,5-difluoro-4-(trifluoromethyl)phenyl]ethyl]-N,N,4,19,22,26,27,32,35-nonamethyl-30-[(1S)-1-methylpropyl]-3,6,9,15,18,21,25,28,31,34,42-undecaoxo-2-[[4-(trifluoromethyl)phenyl]methyl]spiro[1,4,7,10,16,19,22,26,29,32,35-undecazatricyclo[34.5.1.0^10,14]dotetracont-38-ene-17,1′-cyclobutane]-23-carboxamide]: in test [1] (setting [6]), the Kd stood at 0.054 nM. Also, the “NRAS/KRAS (ratio of KD value for NRAS to KD value for KRAS)” value in test [2] (KD ratio class) was “AA (a compound having 20 or more is denoted as AA)”. Further, the “HRAS/KRAS (ratio of KD value for HRAS to KD value for KRAS)” value in test [3] (KD ratio class) is “A (a compound having 10 or more and less than 20 is denoted as A)”. Further, 90.7 nM corresponded to half-maximal inhibition in test [4] (IC50).
In the case of `CC[C@H](C)[C@@H]1NC(=O)[C@H](CC)N(C)C(=O)C[C@@H](C(=O)N(C)C)N(C)C(=O)[C@H](C2CCCC2)N(C)C(=O)C2(CCC2)NC(=O)[C@@H]2C[C@H](C)CN2C(=O)[C@H](CCc2cc(F)c(C(F)(F)F)c(F)c2)NC(=O)CN(C)C(=O)[C@H](Cc2ccc(C(F)(F)F)cc2)N2CC/C=C\C[C@@H](C2=O)N(C)C(=O)CN(C)C1=O` [PP1134, (2S,8S,12S,14S,20S,23S,27S,30S,36S,38Z)-20-cyclopentyl-8-[2-[3,5-difluoro-4-(trifluoromethyl)phenyl]ethyl]-27-ethyl-N,N,4,12,19,22,26,32,35-nonamethyl-30-[(1S)-1-methylpropyl]-3,6,9,15,18,21,25,28,31,34,42-undecaoxo-2-[[4-(trifluoromethyl)phenyl]methyl]spiro[1,4,7,10,16,19,22,26,29,32,35-undecazatricyclo[34.5.1.0^10,14]dotetracont-38-ene-17,1′-cyclobutane]-23-carboxamide], the Kd in test [1] (SPR, Single Cycle Kinetics) stood at 0.06 nM. Also, the “NRAS/KRAS (ratio of KD value for NRAS to KD value for KRAS)” value in test [2] was “A (a compound having 10 or more and less than 20 is denoted as A)”. For the same compound, the “HRAS/KRAS (ratio of KD value for HRAS to KD value for KRAS)” value in test [3] is “B (a compound having 3 or more and less than 10 is denoted as B)”. The compound further showed a half-inhibitory concentration (IC50) in test [4] of 20 nM.
As to `CCO[C@@H]1C[C@H]2C(=O)NC3(CCC3)C(=O)N(C)[C@@H](C3CCCC3)C(=O)N(C)[C@H](C(=O)N3CCOCC3)CC(=O)N(C)[C@@H](CC)C(=O)N[C@@H]([C@@H](C)CC)C(=O)N(C)CC(=O)N(C)[C@H]3C/C=C\CCN(C3=O)[C@@H](Cc3ccc(C(F)(F)F)cc3)C(=O)N(C)CC(=O)N[C@@H](CCc3ccc(C(F)(F)F)c(Cl)c3)C(=O)N2C1` [PP1281, (2S,8S,12R,14S,20S,23S,27S,30S,36S,38Z)-8-[2-[3-chloro-4-(trifluoromethyl)phenyl]ethyl]-20-cyclopentyl-12-ethoxy-27-ethyl-4,19,22,26,32,35-hexamethyl-30-[(1S)-1-methylpropyl]-23-(morpholine-4-carbonyl)-2-[[4-(trifluoromethyl)phenyl]methyl]spiro[1,4,7,10,16,19,22,26,29,32,35-undecazatricyclo[34.5.1.0^10,14]dotetracont-38-ene-17,1′-cyclobutane]-3,6,9,15,18,21,25,28,31,34,42-undecone], the Kd in test [1] (setting [6]) was 0.14 nM. Also, the “NRAS/KRAS (ratio of KD value for NRAS to KD value for KRAS)” value in test [2] (KD ratio class) is reported as “AA (a compound having 20 or more is denoted as AA)”. The “HRAS/KRAS (ratio of KD value for HRAS to KD value for KRAS)” value in test [3] (KD ratio class) was “A (a compound having 10 or more and less than 20 is denoted as A)”. In test [4], this compound gave an IC50 of 10.2 nM.
Regarding `CCC[C@H]1C(=O)N[C@@H](CC(C)C)C(=O)N2C[C@@H](OC)C[C@H]2C(=O)N(C)[C@H]2C/C=C\CCN(C2=O)[C@@H](Cc2ccc(C)cc2)C(=O)N(C)CC(=O)N[C@@H](CCc2cc(F)c(C(F)(F)F)c(F)c2)C(=O)N2C[C@H](OCC)C[C@H]2C(=O)NC2(CCC2)C(=O)N(C)[C@@H](C2CCCC2)C(=O)N(C)[C@H](C(=O)N(C)C)CC(=O)N1C` [PP2547], the Kd in test [1] (setting [5]) came to 4.4 nM. Besides, the “NRAS/KRAS (ratio of KD value with respect to GDP-bound NRAS wild-type protein to KD value with respect to KRAS)” value in test [2] is “A (a compound having 10 or more and less than 20 is denoted as A)”. In addition, the “HRAS/KRAS (ratio of KD value with respect to GDP-bound HRAS wild-type protein to KD value with respect to KRAS)” value in test [3] is “B (a compound having 3 or more and less than 10 is denoted as B)”. In addition, in test [4], half-maximal inhibition (IC50) required 1060 nM.
